Tests used:
[1] = target: T1, LCK (Homo sapiens, UniProt P06239); test: Human LCK enzymatic assay (AlphaScreen, Poly (Glu4-Tyr) substrate); assay type: biochemical; conditions: 100 uM ATP; read-out: LCK IC50 (uM) COFACTOR: 100 uM ATP
T1 construct: purchased ProQinase
Procedure: This assay measures the ability of LCK to phosphorylate a biotinylated peptide containing multiple tyrosine residues in vitro. The LCK enzyme was purchased from ProQinase. The biotinylated Poly (Glu4-Tyr) peptide substrate was purchased from Sigma-Aldrich. The LCK enzyme assay was performed using 1 ng LCK enzyme and 30 nM Poly (Glu4-Tyr) substrate in the presence of 25 mM Hepes pH 7.5, 10 mM MnCl2, 50 mM NaCl, 0.01% Tween-20, 0.5 mM DTT, 0.01% BSA, and 100 μM ATP. A 19 μL volume of the above reaction mixture was added to wells of 384-well AlphaPlate (PerkinElmer GA, USA) containing 1 μL of various concentrations of test compound or DMSO vehicle and incubated for 40 minutes at 25° C. 16 wells containing all the components of reaction mixture and 5% DMSO served as high control. 16 wells containing all the components except ATP of reaction mixture and 5% DMSO served as low control. The enzymatic reaction was stopped by the addition of 5 μL stop/detection mixture containing 25 mM Hepes pH 7.5 100 mM EDTA, and 10 μg/mL streptavidin-coated AlphaScreen donor beads (PerkinElmer GA, USA) and incubated for 20 minutes. A 5 μL mixture containing 25 mM Hepes pH 7.5, 100 mM EDTA, and 10 μg/mL anti-phosphotyrosine antibody PY20-coated AlphaScreen acceptor beads (PerkinElmer GA, USA) was added and the plate was incubated for 1 hour at room temperature. The streptavidin donor beads bind to the biotin moiety on the biotinylated Poly (Glu4-Tyr) substrate and the PY20 antibody-coated acceptor beads bind to tyrosine residues on the substrate that have been directly phosphorylated by LCK. Upon excitation of these beads with laser light at 680 nm, singlet oxygen was produced. This singlet oxygen was rapidly quenched, unless the AlphaScreen PY20 acceptor beads are in close proximity, in which case a proximity signal can be measured at 580 nm. In the presence of catalytic activity, there was a very strong proximity signal. Selective LCK inhibitors affect a decrease in this proximity signal through a decrease in phosphorylation of the Poly (Glu4-Tyr) substrate. The percentage of inhibition at individual concentrations relative to high and low controls was calculated. The data were analyzed by using nonlinear regression to generate IC50 values.

[2] = system: Jurkat/NFAT-RE cells; test: NFAT reporter assay (luciferase) in Jurkat/NFAT-RE cells; assay type: cell-based; conditions: Homo sapiens, 0.02 μg/mL anti-CD3 antibody OKT3, 3 hours, read-out: Jurkat EC50 (uM) Cell Assay: Reporter Cell Variant: NFAT response element
From the text: To assess the ability of CSK inhibitors to activate LCK and stimulate signaling downstream of the T-cell receptor, an NFAT reporter assay was used for monitoring of LCK activation in cells through the activation of LCK-dependent signaling through a reporter assay. The Jurkat T-cell cell line was genetically engineered to express a luciferase reporter that is regulated by the NFAT-response element. (Clipstone, N. A., & Crabtree, G. R., Identification of calcineurin as a key signalling enzyme in T-lymphocyte activation, Nature, 357(6380), 695-697, 1992). Stimulation of the T-cell receptor with anti-CD3 antibody increases the expression of the luciferase reporter. To test the ability of CSK inhibitors to stimulate LCK and downstream T-cell signaling, the cells were stimulated with a suboptimal concentration of anti-CD3 ligand, to measure the ability of CSK inhibitors to increase luciferase expression.
This assay measures the signaling activity downstream of the T-cell receptor, specifically the ability of the NFAT transcription factor to be translocated to the nucleus and induce expression of a firefly luciferase gene. Jurkat/NFAT-RE cells stably expressing the NFAT reporter construct were purchased from BPS Bioscience. The assay was performed by plating 40,000 Jurkat/NFAT-RE cells in a 50 μL volume of serum-free growth media in a 96-well plate. Following an overnight incubation, the cells were treated with CSK inhibitors and 0.02 μg/mL anti-CD3 antibody OKT3 (BD Bioscience) for 3 hours at 37° C. High control wells were stimulated with DMSO and 5 μg/mL OKT3 to maximally stimulate the NFAT reporter, and low control wells were stimulated with DMSO and 0.02 μg/mL OKT3. Following the 3 hour incubation, the cells were assayed for viability using CellTiter-Fluor™ (Promega), and for luciferase expression using ONE-Glo™ (Promega). The ONE-Glo™ signal was normalized to the CellTiter-Fluor™ signal, and the percentage of NFAT activation relative to high and low controls was calculated. The data were analyzed by using nonlinear regression to generate EC50 values. Selective CSK inhibitors affect an increase in luciferase expression in the presence of low level stimulation of the T-cell receptor.

[3] = target: T2, CSK (Homo sapiens, UniProt P41240); test: Human CSK enzymatic assay (AlphaScreen, Poly (Glu4-Tyr) substrate); assay type: biochemical; conditions: 100 uM ATP; read-out: CSK IC50 (μM) COFACTOR: 100 uM ATP
T2 construct: purchased Thermo Fisher
T2 sequence (P41240 whole entry): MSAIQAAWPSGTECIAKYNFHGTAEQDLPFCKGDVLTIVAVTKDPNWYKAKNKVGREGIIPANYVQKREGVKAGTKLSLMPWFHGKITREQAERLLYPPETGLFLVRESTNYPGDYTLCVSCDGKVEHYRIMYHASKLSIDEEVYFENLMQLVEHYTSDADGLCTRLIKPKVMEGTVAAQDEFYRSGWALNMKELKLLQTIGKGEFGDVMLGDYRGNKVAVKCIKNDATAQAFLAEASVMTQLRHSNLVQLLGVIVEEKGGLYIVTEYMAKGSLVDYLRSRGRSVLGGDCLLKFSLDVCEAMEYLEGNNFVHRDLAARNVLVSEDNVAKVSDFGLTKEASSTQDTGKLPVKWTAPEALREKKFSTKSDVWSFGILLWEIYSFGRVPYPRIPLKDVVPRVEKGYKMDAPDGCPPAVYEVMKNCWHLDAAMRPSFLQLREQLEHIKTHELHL
Procedure: This assay measures the ability of CSK to phosphorylate a biotinylated peptide containing multiple tyrosine residues in vitro. The CSK enzyme was purchased from Thermo Fisher. The biotinylated Poly (Glu4-Tyr) peptide substrate was purchased from Sigma-Aldrich. The CSK enzyme assay was performed using 0.75 ng CSK enzyme and 30 nM Poly (Glu4-Tyr) substrate in the presence of 25 mM Hepes pH 7.5, 5 mM Mg Acetate, 0.1% NP-40, 1 mM DTT, 0.01% BSA, and 100 μM ATP. A 19 μL volume of the above reaction mixture was added to wells of 384-well AlphaPlate (PerkinElmer GA, USA) containing 1 μL of various concentrations of test compound or DMSO vehicle and incubated for 60 minutes at room temperature. 16 wells containing all the components of reaction mixture and 5% DMSO serve as high control. 16 wells containing all the components except ATP of reaction mixture and 5% DMSO served as low control. The enzymatic reaction was stopped by the addition of 5 μL stop/detection mixture containing 25 mM Hepes pH 7.5 100 mM EDTA, and 5 μg/mL streptavidin-coated AlphaScreen donor beads (PerkinElmer GA, USA) and incubated for 20 minutes. A 5 μL mixture containing 25 mM Hepes pH 7.5, 100 mM EDTA, and 5 μg/mL anti-phosphotyrosine antibody PY20-coated AlphaScreen acceptor beads (PerkinElmer GA, USA) was added and the plate was incubated for 1 hour at room temperature. The streptavidin donor beads bind to the biotin moiety on the biotinylated Poly (Glu4-Tyr) substrate and the PY20 antibody-coated acceptor beads bind to tyrosine residues on the substrate that have been directly phosphorylated by CSK. Upon excitation of these beads with laser light at 680 nm, singlet oxygen was produced. This singlet oxygen was rapidly quenched, unless the AlphaScreen PY20 acceptor beads are in close proximity, in which case a proximity signal can be measured at 580 nm. In the presence of catalytic activity, there was a very strong proximity signal. Selective CSK inhibitors affect a decrease in this proximity signal through a decrease in phosphorylation of the Poly (Glu4-Tyr) substrate. The percentage of inhibition at individual concentrations relative to high and low controls was calculated. The data were analyzed by using nonlinear regression to generate IC50 values. Human LCK enzymatic assay

T1 sequence (P06239 whole entry): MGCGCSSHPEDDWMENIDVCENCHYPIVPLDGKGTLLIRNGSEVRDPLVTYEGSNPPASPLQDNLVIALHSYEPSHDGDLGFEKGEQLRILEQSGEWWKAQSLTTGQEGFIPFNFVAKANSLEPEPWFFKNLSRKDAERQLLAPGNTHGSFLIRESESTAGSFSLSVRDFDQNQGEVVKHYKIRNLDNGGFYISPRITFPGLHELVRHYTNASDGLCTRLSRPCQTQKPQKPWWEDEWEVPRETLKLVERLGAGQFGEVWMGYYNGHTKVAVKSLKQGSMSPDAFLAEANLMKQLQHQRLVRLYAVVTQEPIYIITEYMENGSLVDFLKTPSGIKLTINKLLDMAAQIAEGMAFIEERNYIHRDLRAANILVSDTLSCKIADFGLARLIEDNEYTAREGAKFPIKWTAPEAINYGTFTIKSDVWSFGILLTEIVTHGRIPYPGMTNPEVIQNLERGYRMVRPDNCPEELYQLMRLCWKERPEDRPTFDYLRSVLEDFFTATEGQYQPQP

SMILES	IC50 [1] [µM]	EC50 [2] [µM]	IC50 [3] [µM]
O=c1c(-c2c(F)ccc(NS(=O)(=O)c3cc4scnc4cc3F)c2F)cc2cnccc2n1CC1CC1 [P-0025, N-(3-(1-(cyclopropylmethyl)-2-oxo-1,2-dihydro-1,6-naphthyridin-3-yl)-2,4-difluorophenyl)-5-fluorobenzo[d]thiazole-6-sulfonamide]	5 to 100	5 to 100	0.5 to 5
Nc1cc2c(cn1)cc(-c1c(F)ccc(NS(=O)(=O)c3ccc4ncsc4c3)c1F)c(=O)n2C1CC1 [P-0026, N-(3-(7-amino-1-cyclopropyl-2-oxo-1,2-dihydro-1,6-naphthyridin-3-yl)-2,4-difluorophenyl)benzo[d]thiazole-6-sulfonamide]	5 to 100	0.5 to 5	0.001 to 0.5

From patent publication US20210315869A1, “COMPOUNDS AND METHODS FOR CSK MODULATION AND INDICATIONS THEREFOR” (Plexxikon Inc., priority 2020, published 2021)
